Measured values reported in patent US20110293756A1, “PREVENTIVES OR REMEDIES FOR TUMOR OR HUMAN PAPILLOMAVIRAL DISEASE” (priority 2001, published 2011).

Legend:
[1] = tested on: cervical carcinoma in situ (CIS); experiment: Clinical test in cervical carcinoma in situ (CIS), stage 0; format: in vivo, human; conditions: 2 to 6 weeks of administration; extracts 2 g/day, folic acid 15 mg/day; group A 21, B 15 (8+7), C 8, D 12, E 11 cases; control 0 of 42
Description: A method for the clinical testing was performed in the manner described below under sufficient informed consent. Colposcopy was performed for patients who had been diagnosed to be class IV or V based on the cytobiosis of cervical cancer, portions of their lesions were subjected to biopsy, and then administration of various pharmaceutical preparations was immediately started. Test groups are as shown below. Each group was observed. […]

[2] = tested on: koilocytic atypia, mild dysplasia and moderate dysplasia; conditions: 5 mg/day, 331 patients, six months; cited from earlier work
CIN I or CIN II = conditions: 10 mg/day, 154 cases, 6 months; cited from earlier work
[3] = tested on: cervical dysplasia (CIN1, CIN2); experiment: Clinical test in cervical dysplasia CIN1 / CIN2; format: in vivo, human; conditions: 2 months after administration; extracts 2 g/day, folic acid 15 mg/day; Yokunin 8, hot water 3, ethanol 3, folic acid 5, enzyme/fermentation 6, with folic acid 8 cases; untreated 0 of 15
Description: According to the CIN classification, CIN1 and CIN2 correspond to mild dysplasia and moderate dysplasia, respectively, and CIN3 includes severe dysplasia and the above CIS. Here, the clinical effect of the pharmaceutical preparations of the present invention against the CIN1 and CIN2 is presented.
A test was conducted for cases, which had been diagnosed to be class III by cytological diagnosis and as having mild dysplasia or moderate dysplasia by histological diagnosis, and carefully followed up without conization, and for which informed consent had been obtained.
Further, the enzyme extract of Coix seeds with husks (3 cases)- or the fermentation extract (3 cases) (daily dose of 2 g of the respective extract ingredients)-administered group (6 cases), the enzyme extract of Coix seeds with husks (4 cases) or the fermentation extract (4 cases) (respective daily dose of 2 g as the extract ingredient) compounded with folic acid (15 mg/day)-administered group (8 cases) were observed. […] Test groups are as shown below. Each group was observed.
Each pharmaceutical preparation was administered over a long period (1 year), and cytological diagnosis and colposcopy were performed every 3 to 4 months.

Nc1nc2ncc(CNc3ccc(C(=O)N[C@@H](CCC(=O)O)C(=O)O)cc3)nc2c(=O)[nH]1 [folic acid]
cases showing disappearance of carcinoma in situ in postoperative histological tests [1]: none of the cases
improving effect compared with the group orally administered with placebo [2]: no difference was found
effect compared with the group orally administered with placebo (CIN I or CIN II): no difference was also found
cases showing improvement in both cytological diagnosis and colposcopy findings [3]: None of the cases
